{"source": "patent US7425548B2", "about": "“Materials and methods for immune system stimulation” (Variety Chidren's Hospital, priority 2004, dated 2008)", "key": {"normal lymphocytes": {"tested_on": "normal lymphocytes", "experiment": "Quantification of cytokine and chemokine synthesis by ELISA", "format": "cell-based, human", "procedure": "FIGS. 8A-8H show synthesis of cytokines and chemokine in RR1-induced normal lymphocytes. Normal lymphocytes from healthy volunteers were treated with RR1 (0-100 μg) at 37° C. for 24 hours in a CO2 incubator in RPMI medium. The supernatant medium was analyzed for the production of cytokines and chemokine in an ELISA procedure using reagent kits (BD Biosciences).\nImmunostimulating Properties. To measure the immune stimulatory property of RR1, the activation of the different subsets of lymphocytes, syntheses of cytokines such as interleukin (IL)-1β, IL-2, IL-4, IL-6, IL-10, IL-12 p70 and p40, IL-18, interferon (IFN)-α and γ, Tumor Necrosis factor (TNF)-α and β, monocyte chemo-attractant protein (MCP)-1, synthesis of nitric oxide (NO), and the extent of oxidative stress elicited in human lymphocytes was analyzed. Normal lymphocytes were isolated by the histopaque density gradient method from fresh blood drawn from healthy volunteers and utilized for various assays. Human leukemic (CEM) and multidrug resistant (CEM/VLB) cell lines were grown in RPMI medium supplemented with 10% fetal bovine serum and antibiotics in 5% CO2 incubator at 37° C.\nQuantification of Cytokine and Chemokine Synthesis. Cytokines such as IL-1β, IL-2, IL-4, IL-6, IL-10, IL-12p40, IL-12p70, IL-18, IFN-γ and TNF-α, β and chemokine, MCP-1 were quantified by ELISA procedure using kits from BD Biosciences, according to manufacturer's protocols. IFN-α was assayed using the ELISA kit of RESEARCH DIAGNOSTICS Inc. (New Jersey). In short, 50 μl of ELISA diluent is pipetted into antibody coated wells of 96 well plates followed by 100 μl of each standard and test samples, shaken for 5 seconds to mix the contents in the wells, covered with plate sealer and incubated for 2 hours at room temperature. After incubation, the contents of the wells were aspirated and washed five times with wash solution. After complete removal of the wash solution in the final wash, 100 μl of detection solution was added, covered with plate sealer, and incubated for 1 hour. The wells were washed 7 times with wash solution and added 100 μl of one step substrate reagent and incubated for 30 minutes in dark. The color development was stopped by adding 50 μl of stop solution and the absorbance were recorded at 450 nm with a reference wave length of 570 nm in a BIO-RAD Benchmark plate reader."}, "[1]": {"tested_on": "normal lymphocytes (NK, T and B cells)", "experiment": "Activation of lymphocyte subsets, flow cytometry (CD69)", "format": "cell-based, human", "procedure": "Normal lymphocytes were treated with RR1 (0-100 μg/ml) for 24 hours at 37° C. in a CO2 incubator. The cells were stained with a panel of cell specific antibodies conjugated with different fluorochromes: CD3-FITC, CD16/56-PE, CD19-ECD, CD69-PC5 or CD8-FITC, CD4-PE, CD3-ECD, CD69-ECD. The stained cells were analyzed in a Coulter Elite flow cytometer in a 4-color assay. ***p<0.001.\nActivation of Lymphocytes. Normal lymphocytes (10^6/ml) were treated with 0-100 μg of RR1 for 24 hours in a CO2 incubator maintained at 37° C. in RPMI medium. The cells were then stained with specific fluorochrome-conjugated monoclonal antibodies for 30 minutes at room temperature and analyzed in a Coulter Elite Flow Cytometer by four and five color immunotyping assay protocol of Alamo and Melnick (Alamo, A. L. and S. J. Melnick Cytometry, 2000, 42:363-370) and the percentage of activation of subsets of lymphocytes such as NK, T and B cells were calculated."}, "Water solubility": {"experiment": "Water solubility", "format": "physicochemical", "procedure": "Isolation and characterization of RR1. […] The final RR1 compound, shown in FIG. 3, was isolated in about 0.1% yield of the total dry material used for extraction as a puffy solid that dissolved in water. […] Therefore, detailed polysaccharide analyses such as the glycosyl composition, linkage, molecular weight and conformation of the glucose units at the anomeric center were performed at the Complex Carbohydrate Research Center, University of Georgia, Athens. […] To perform glycosyl linkage analysis, the sample was permethylated three times by the method of Cikanu and Kereck (Ciucanu, I. and F. Kereck Carbohydr. Res., 1984, 131:209-217), hydrolyzed with 2 M trifluroacetic acid, reduced with NaBD4 and acetylated with acetic anhydride/pyridine and the resulted partially methylated alditol acetates (PMAA) were analyzed by GC/MS. […] The conformations at the anomeric center of the glucopyranosyl units were obtained based on the 500 MHz protonNMR spectra recorded in D2O and by comparison with the anomeric proton signals of standard samples. The molecular mass was obtained from the size exclusion chromatography using SUPELCO silica column (1.0×30 cm), eluting with 50 mM ammonium formate buffer at a rate of […]. and detected by the refractive index. […]"}, "[2]": {"settings": "RR1 0-100 μg, 24 hours (FIGS. 8A-8H)"}}, "note": "Like-named read-outs stand apart in the source and are kept apart here.", "data": [{"substance": "(1,4)-α-D-glucan [RR1]", "values": [{"measurement": "synthesis of IFN-γ", "setting": "normal lymphocytes", "result": 90.16, "unit": "pg/mL"}, {"measurement": "synthesis of IL-6", "setting": "normal lymphocytes", "result": 21833, "unit": "pg/mL"}, {"measurement": "synthesis of IL-12 p40", "setting": "normal lymphocytes", "result": 918.23, "unit": "pg/mL"}, {"measurement": "synthesis of IL-12 p70", "setting": "normal lymphocytes", "result": 50.19, "unit": "pg/mL"}, {"measurement": "synthesis of MCP-1", "setting": "normal lymphocytes", "result": 2307, "unit": "pg/mL"}, {"measurement": "production of IFN-α", "setting": "normal lymphocytes; 24 hours", "result": "did not induce"}, {"measurement": "production of IL-2", "setting": "normal lymphocytes; 24 hours", "result": "did not induce"}, {"measurement": "production of IL-4", "setting": "normal lymphocytes; 24 hours", "result": "did not induce"}, {"measurement": "production of IL-10", "setting": "normal lymphocytes; 24 hours", "result": "did not induce"}, {"measurement": "production of TNF-β", "setting": "normal lymphocytes; 24 hours", "result": "did not induce"}, {"measurement": "RR1 concentration at which the maximum IL-12 (p40) was recorded", "setting": "normal lymphocytes; FIG. 8C", "result": 10, "unit": "µg/mL"}, {"measurement": "synthesis of IFN-γ", "setting": "normal lymphocytes; [2]", "result": 90.16, "unit": "pg"}, {"measurement": "synthesis of IL-1β", "setting": "normal lymphocytes; [2]", "result": 1080, "unit": "pg"}, {"measurement": "synthesis of IL-6", "setting": "normal lymphocytes; [2]", "result": 21833, "unit": "pg"}, {"measurement": "synthesis of IL-12 p40", "setting": "normal lymphocytes; [2]", "result": 918.23, "unit": "pg"}, {"measurement": "synthesis of IL-12 p70", "setting": "normal lymphocytes; [2]", "result": 50.19, "unit": "pg"}, {"measurement": "synthesis of IL-18", "setting": "normal lymphocytes; [2]", "result": 27.47, "unit": "pg"}, {"measurement": "synthesis of MCP-1", "setting": "normal lymphocytes; [2]", "result": 2307, "unit": "pg"}, {"measurement": "synthesis of TNF-α", "setting": "normal lymphocytes; [2]", "result": 2225, "unit": "pg"}, {"measurement": "synthesis of IL-18", "setting": "normal lymphocytes; at 100 pg/ml concentration", "result": 27.47, "unit": "pg/mL"}, {"measurement": "synthesis of TNF-α", "setting": "normal lymphocytes; at 100 pg/ml concentration", "result": 2225, "unit": "pg/mL"}, {"measurement": "fold activation of NK cells", "setting": "[1]; 100 μg/ml RR1", "result": "> 3", "unit": "fold"}, {"measurement": "activation of B cells", "setting": "[1]; 100 μg/ml RR1, 24 hours", "result": 39, "unit": "%"}, {"measurement": "activation of NK cells", "setting": "[1]; 100 μg/ml RR1, 24 hours", "result": 331, "unit": "%"}, {"measurement": "activation of T cells", "setting": "[1]; 100 μg/ml RR1, 24 hours", "result": 102, "unit": "%"}, {"measurement": "solubility in water", "setting": "Water solubility", "result": "soluble in water"}]}]}
